From PMC4507179, “Insights into the key interactions between human protein phosphatase 5 and cantharidin using molecular dynamics and site-directed mutagenesis bioassays” (Scientific Reports, 2015)
Changes are numbered by the printed parent chain.

What was measured:
[1] = molecular target: T1, HuPP5 H129A (Homo sapiens, UniProt P53041, H304A); assay: Inhibition of recombinant HuPP5 mutant H129A (p-NPP substrate); format: biochemical; details: for IC50: recombinant HuPP5 H129A, p-NPP; for ΔΔGbind-exp, H129A: ΔΔGbind = RTln(IC50 mutant/IC50 wild-type)
T1 construct: 6xHis (N); made in house; host or cells: Escherichia coli BL21(DE3)pLysS, pET43.1b
T1 sequence (P53041 1-499 H304A): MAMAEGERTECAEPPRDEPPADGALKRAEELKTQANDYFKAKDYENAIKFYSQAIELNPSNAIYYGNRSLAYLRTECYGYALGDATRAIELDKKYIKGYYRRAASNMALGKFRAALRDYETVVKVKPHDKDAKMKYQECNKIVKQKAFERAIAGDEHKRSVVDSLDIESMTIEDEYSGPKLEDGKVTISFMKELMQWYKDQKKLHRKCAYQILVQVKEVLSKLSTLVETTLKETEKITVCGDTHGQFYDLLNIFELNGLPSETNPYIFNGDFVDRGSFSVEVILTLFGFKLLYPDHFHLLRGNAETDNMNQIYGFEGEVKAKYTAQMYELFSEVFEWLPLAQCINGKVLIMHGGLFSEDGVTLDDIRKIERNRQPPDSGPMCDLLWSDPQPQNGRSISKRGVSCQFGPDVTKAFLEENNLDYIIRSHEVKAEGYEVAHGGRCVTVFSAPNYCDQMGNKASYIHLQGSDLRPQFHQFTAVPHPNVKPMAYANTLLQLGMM
Description: (§1) A PCR-based site-directed mutagenesis approach was used to change Arg 100 to Ala (R100A), His 129 to Ala (H129A), and Arg 225 to Ala (R225A). All recombinant enzymes were soluble, expressed in E. coli and purified to homogeneity (>90% pure) (Figure S9). […] However, their inhibitory activity was suppressed against the three individually site-directed mutagenesis HuPP5: R100A, H129A, and R225A (Table S7). H129A appears to be most unfavorable to the binding of these inhibitors due to the highest IC50 values (>10 mM). […]
(§2) Site-directed mutagenesis. The sequence encoding the ORF of Human PP5 (HuPP5) was isolated from the liver cancer cell line SMMC-7721 by PCR using primers that introduced a Nde I site and 6xHis tag at the forward one, and a Xho I site at the reverse one. The PCR products were cloned into pCR2.1 (Invitrogen, Carlsbad, CA, USA) and transformed into DH5α (TaKaRa, Dalian, China) and then sequenced (AuGCT, Inc., Beijing, China). The mutants were generated using the QuikChange® site-directed mutagenesis kit (Stratagene, La Jolla, CA, USA) following the instruction manual. The mutagenic primers were designed based on the sequence of wild-type […]
(§3) The mutants were sequenced to confirm the presence of the desired mutations and the lack of undesired mutations.
(§4) Protein expression and purification. The wild-type and mutants HuPP5 were then cloned into the corresponding sites of pET43.1b (Novagen, Madison, WI, USA) and transformed into Escherichia coli BL21(DE3)pLysS (Novagen, Madison, WI, USA). Proteins were expressed in LB (also on this page, place not known: scan ning. T he Cβ -H Cβ -Cγ. energ y tantbinding mu wildtypeG G G −−ΔΔ =Δ −Δ tantbinding muG −Δ binding wildtypeG −Δ binding re spectively. bindingGΔΔ binding (Invitrogen , USA ) site -directed (Stratagene , USA ) wild -type S 5. purification . s ites (Novagen , USA )) […]
(§5) (Luria-Bertani) broth (containing 2 mM MnCl2, 100 μg/ml ampicillin and 34 μg/ml chloramphenicol) and induced with 0.1 mM IPTG (isopropyl β-thiogalactoside) for 24 h at 18 ℃.
(§6) Cells were harvested by centrifugation (8,000 g for 10 min at 4 ℃) and were lysed by sonication in buffer A (20 mM Tris-HCl, pH=8.0, 4 mM MnCl2, 300 mM NaCl) containing 20 mM imidazole, 0.1% β-mercaptoethanol, 1.0 mg/ml lysozyme and 1 mM PMSF. After centrifugation for 20 min at 20,000 g at 4 ℃, the supernatant was loaded to a buffer A pre-equilibrated Ni-NTA affinity column (Transgen, Beijing, China) to bind the 6xHis tagged protein. The reduction of non-specific interactions between the extract proteins and the matrix was achieved by washing the Ni-NTA resins with buffer B (20 mM Tris-HCl, pH=8.0, 300 mM NaCl, 1 mM EGTA, 0.1% β-mercaptoethanol, 4 mM MnCl2) containing 20 mM imidazole. Elution was then conducted using 150 mM imidazole in buffer B. The eluted HuPP5 fractions were pooled and dialyzed against buffer C (buffer B + 50% glycerol) overnight. Dialyzed samples were subjected to 12% SDS-PAGE and stained with Coomassie blue. Protein concentrations were determined using a BCA Protein Assay Kit (Pierce, Thermo Scientific, Rockford, IL, USA).
(§7) Enzymatic assays and inhibition studies. Phosphatase activity was measured using p-NPP (p-nitrophenyl phosphate) as substrate. Assays were performed in a 200 μL reaction containing 500 ng protein and assay buffer (20 mM p-NPP in 20 mM Tris (pH 7.4), 100 μM arachidonic acid, 1 mM EGTA, 0.1% β-mercaptoethanol and 0.1% ethanol). The reaction was initiated by adding the p-NPP and incubated at 35 ℃ for 10 min. Control reactions were assayed without enzyme.
(§8) Assays were terminated by addition of 200 μL of 5 N NaOH. Sample absorbance was measured at A410 using the TECANTM Infinite® 200 PRO multimode micro-plate reader after subtracting the appropriate background. Kinetic parameters were determined by using the Michaelis-Menten […]
(§9) plot analysis of data obtained under the assay conditions as mentioned above with the addition of […]

[2] = molecular target: T2, HuPP5 R100A (Homo sapiens, UniProt P53041, R275A); assay: Inhibition of recombinant HuPP5 mutant R100A (p-NPP substrate); format: biochemical; details: for IC50: recombinant HuPP5 R100A, p-NPP, mean ± S.D., three independent experiments; for ΔΔGbind-exp, R100A: ΔΔGbind = RTln(IC50 mutant/IC50 wild-type)
T2 construct: 6xHis (N); made in house; host or cells: Escherichia coli BL21(DE3)pLysS, pET43.1b
T2 sequence (P53041 1-499 R275A): T1 sequence (P53041 1-499 H304A) with R275A, A304H
Description: as §1, §2, §3, §4, §5, §6, §7, §8, §9

[3] = system: PP5; parameters: method as in PMID 17200551, PMID 19025735, PMID 20331621; details: read-out: relative IC50 value against PP5; cited from earlier work
[4] = molecular target: T3, recombinant wild-type HuPP5 (Homo sapiens, UniProt P53041); assay: Inhibition of recombinant wild-type HuPP5 phosphatase activity (p-NPP substrate); format: biochemical; details: mean ± S.D., three independent experiments
T3 construct: 6xHis (N); made in house; host or cells: Escherichia coli BL21(DE3)pLysS, pET43.1b
T3 sequence (P53041 1-499): T1 sequence (P53041 1-499 H304A) with A304H
Procedure: The structures for the manganese-containing systems (Figure S2) were taken from the Research Collaboration for Structural Bioinformatics protein database (RCSB Protein Data Bank, PDB ID: 3H63; 3H61; 3H64)[22], and all the structures were visualized using pymol 1.3 r1 edu. Manganese-related force field parameters were determined using Seminario’s method. Atomic single charge was calculated using the restrained electrostatic potential (RESP) fitting protocol. The Quantum Mechanics (QM) and Molecular Mechanics (MM) vibrational frequencies were compared to check the quality of the force field parameters. We performed three individual 50 ns MD at different seeds for each system. All MD simulations were performed with the AMBER12 package. All MD results were analyzed with the Ambertools13 package based on three individual 50 ns MD trajectories, and the data were averaged. Molecular Mechanics-Poisson-Boltzmann Surface Area (MM-PBSA)[32] calculations were performed on 1000 snapshots exacted from 40 ~ 50 ns production trajectories with a time interval of 10 ps to estimate the binding free energy. Since only the catalytic domain was used in the simulations, the starting point in our constructed structure corresponds to the 176th residue in the reference structure. […] The IC50 values of the three compounds against all HuPP5 proteins were calculated from the dose-dependent inhibition assay. […]
Cells were harvested by centrifugation (8,000 g for 10 min at 4 ℃) and were lysed by sonication in buffer A (20 mM Tris-HCl, pH=8.0, 4 mM MnCl2, 300 mM NaCl) containing 20 mM imidazole, 0.1% β-mercaptoethanol, 1.0 mg/ml lysozyme and 1 mM PMSF. […] Protein concentrations were determined using a BCA Protein Assay Kit (Pierce, Thermo Scientific, Rockford, IL, USA).
Enzymatic assays and inhibition studies. Phosphatase activity was measured using p-NPP (p-nitrophenyl phosphate) as substrate. […]

[5] = molecular target: T4, HuPP5 R225A (Homo sapiens, UniProt P53041, R400A); assay: Inhibition of recombinant HuPP5 mutant R225A (p-NPP substrate); format: biochemical; details: for IC50: recombinant HuPP5 R225A, p-NPP, mean ± S.D., three independent experiments; for ΔΔGbind-exp, R225A: ΔΔGbind = RTln(IC50 mutant/IC50 wild-type)
T4 construct: 6xHis (N); made in house; host or cells: Escherichia coli BL21(DE3)pLysS, pET43.1b
T4 sequence (P53041 1-499 R400A): T1 sequence (P53041 1-499 H304A) with A304H, R400A
Description: as §1, §2, §3, §4, §5, §6, §7, §8, §9

Structure (SMILES) | IC50 [1] | ΔΔGbind-exp, H129A [1] | IC50 [2] | ΔΔGbind-exp, R100A [2] | IC50 [3] | IC50 [4] | IC50 [5] | ΔΔGbind-exp, R225A [5] | IC50 on R225A higher than that of cantharidin ([5]; ratio of IC50 values on HuPP5 R225A, versus cantharidin) | IC50 on R225A higher than that of norcantharidin ([5]; ratio of IC50 values on HuPP5 R225A, versus norcantharidin)
C[C@@]12C(=O)OC(=O)[C@]1(C)[C@H]1CC[C@@H]2O1 [Cantharidin, cantharidin] | > 10000 µM | >5.74 kcal/mol | 4.05 ± 0.34 µM | 0.97 kcal/mol | 0.6 µM | 0.82 µM | 21.9 ± 1.12 µM | 2.03 kcal/mol |  | 
O=C(O)[C@@H]1[C@H](C(=O)O)[C@H]2CC[C@@H]1O2 [Endothall, endothall] | > 10000 µM | >4.83 kcal/mol | 18.4 ± 0.39 µM | 0.99 kcal/mol |  | 3.64 µM | 1060 ± 63.7 µM | 3.46 kcal/mol | 48.54 fold | 6.47 fold
O=C1OC(=O)[C@H]2[C@@H]1[C@@H]1CC[C@H]2O1 [Norcantharidin, norcantharidin] | > 10000 µM | >4.75 kcal/mol | 17.8 ± 1.44 µM | 0.88 kcal/mol |  | 4.18 µM | 164 ± 9.84 µM | 2.24 kcal/mol |  | 
